US6555576B1, “Method for treating exercise induced asthma” (SmithKline Beecham Corporation, priority 1999, dated 2003)

How the values were obtained:
[1] = tested on: low affinity form of PDE 4 (LPDE 4); assay: PDE 4 catalytic activity assay (low affinity form); type: biochemical, human; settings: HPDE 4 IC50 divided by LPDE 4 IC50
Protocol: Consequently, inhibition of recombinant PDE 4 catalytic activity primarily reflects the actions of compounds at LPDE 4. Inhibition of PDE 4 catalytic activity can thus be used as an index of the potency of compounds at LPDE 4.
Isolated human monocyte PDE 4 and hrPDE 4 was determined to exist primarily in the low affinity form.

[2] = biological target: T1, high affinity rolipram binding site of PDE 4 (HPDE 4); assay: [3H]-rolipram binding assay (high affinity site); settings: competition with 1 nM [3H]-rolipram, rat brain high speed supernatants, 1 hour at 30° C.
T1 construct: Rat brain high speed supernatants were used as a source of protein
Protocol: Rat brain high speed supernatants were used as a source of protein. […] The assay was run for 1hour at 30° C. The reaction was terminated and bound ligand was separated from free ligand using a Brandel cell harvester. Competition for the high affinity binding site was assessed under conditions that were identical to those used for measuring low affinity PDE activity, expect that [^3H]-cAMP was not present.

[3] = human, in vivo; cited from earlier work
acid secretion = settings: rats, particularly in combination with an activator of adenylate cyclase such as histamine; cited from earlier work
patients with EIA = assay: Exercise challenge study in patients with EIA; type: in vivo, human
Protocol: A randomized, double-blind, placebo-controlled, two-period cross-over study was conducted to assess the efficacy, safety and tolerability of cis-[4-cyano-4-(3-cyclopentyloxy-4-methoxyphenyl)cyclohexan-1-carboxylate] in patients with EIA. 27 patients with EIA were randomized to receive the compound, 10 mg BID immediate release tablet or placebo, for 7 days followed by a 7 day washout and the alternate treatment for 7 days. Exercise challenge tests were performed after a single dose on day 1, and again on day 7 (pre-dose and three hours post-dose).
The patient population consisted of non-smoking men or women, ages 18 to 60 years with EIA such that:
a) their forced expiratory volume in one second (FEV1) was greater than or equal to 70% of predicted normal,
b) the documented fall in FEV1 was greater than or equal to 15% in response to exercise testing at a screening visit, and
c) they were not taking inhaled corticosteroids or other controller medications for asthma.
The Exercise Challenge Protocol was as follows. Patients were exercised on a motorized treadmill for six minutes at target heart rate. Speed and inclination were adjusted to achieve a target heart rate for each patient of 85% of age-adjusted maximum predicted. Patients breathed compressed air (0% humidity at room temperature) during the test through a face mask. Pulmonary function tests (KoKo pneumotach) were performed 1, 5, 10, 15, 20, 30 and 45 minutes after completion of the test and continued thereafter if FEV1 had not returned to within 10% of the baseline.
The primary efficacy variable was the maximum percentage decrease (MPD) in the FEV1 in response to exercise. The results indicated significant improvement in MPD FEV1 after one dose of the compound, from a mean MPD of 32.88% to 23.57%. There was an incremental effect of the compound after 7 days of dosing with further improvement in mean MPD FEV1 to 21.8%. […] See also, Am. J. Resp. Crit. Care Med. 1998:157; A413, incorporated herein in its entirety by reference.

For CCOC(=O)C=C1C[C@@H](c2ccc(OC)c(OC3CCCC3)c2)CN1 [(S)-(−)-ethyl [4-(3-cyclopentyloxy-4-methoxyphenyl)pyrrolidine-2-ylidene]acetate], the “High/Low Ratio (IC50 high affinity / IC50 low affinity)” value [1] was “.98”.
For COc1ccc(C2CCC(c3nnn[nH]3)C2)cc1OC1CCCC1 (stereo not drawn) [1-(5-tetrazole)-3-(3-cyclopentyloxy-4-methoxyphenyl)cyclopentane], the “High/Low Ratio (IC50 high affinity / IC50 low affinity)” value [1] was 0.0018.
For NC(=O)C(=O)NCCc1ccc(OC(F)F)c(OC(F)F)c1 [N-[2-(3,4-bisdifluoromethoxy-phenyl)ethyl]oxamide], the “High/Low Ratio (IC50 high affinity / IC50 low affinity)” value [1] was 0.25 and the IC50 [2] was 400 nM.
In the case of OCCN(CCO)c1nc(N2CCCCC2)c2nc(N(CCO)CCO)nc(N3CCCCC3)c2n1 [dipyridamole, 2,2′,2″,2′-[(4,8-dipiperldinopyrimido[5,4-d]pyrmidine-2-6-diyl)dinitrilo]tetraethanol, reference compound], the “High/Low Ratio (IC50 high affinity / IC50 low affinity)” value [1] is reported as 6.25.
With CCOC(=O)C=C1C[C@H](c2ccc(OC)c(OC3CCCC3)c2)CN1 [(R)-(+)-ethyl [4-(3-cyclopentyloxy-4-methoxyphenyl)pyrrolidine-2-ylidene]acetate] the “High/Low Ratio (IC50 high affinity / IC50 low affinity)” value [1] was 2.143.
In the case of COc1ccc(C2CNC(=O)C2)cc1OC1CCCC1 (stereo not drawn) [rolipram], the “side effects in clinical studies” value [3] is given as “has psychotropic activity and produces gastrointestinal effects, e.g., pyrosis, nausea and emesis” and the “effect on acid secretion” value (acid secretion) is given as “enhance acid secretion”.
In the case of COc1ccc(C2CN(Cc3ccc(N)cc3)C(=O)N2)cc1OC1CCCC1 (stereo not drawn) [1-(4-aminobenzyl)-4-(3-cyclopentyloxy-4-methoxyphenyl)-2-imidazolidinone], the “High/Low Ratio (IC50 high affinity / IC50 low affinity)” value [1] is reported as 0.07 and the IC50 [2] is reported as 100 nM.
In the case of COc1ccc(C2(C#N)CCC(C(=O)O)CC2)cc1OC1CCCC1 (stereo not drawn) [cis-[4-cyano-4-(3-cyclopentyloxy-4-methoxyphenyl)cyclohexan-1-carboxylate]], the safety and tolerability (patients with EIA; 10 mg BID for 7 days, patients with EIA) is reported as “safe and well tolerated, with no treatment-related serious adverse experiences or withdrawals”, the “effects in humans suffering from EIA” value (patients with EIA; administered to humans suffering from EIA) is reported as “reduced inflammation, bronchodilation and pulmonary neuromodulation” and the “mean maximum percentage decrease (MPD) in FEV1 in response to exercise” value (patients with EIA; after 7 days of dosing, 10 mg BID) is reported as 21.8%. The “mean maximum percentage decrease (MPD) in FEV1 in response to exercise” value (patients with EIA; after one dose, 10 mg immediate release tablet, improved from mean MPD of 32.88%) was 23.57% and the “patients with a fall in FEV1 of less than or equal to 15% after exercise” value (patients with EIA; after one week of treatment, 10 mg BID) was 40%.
In the case of CCCCOc1cc(CC2CNC(=O)N2)ccc1OC (stereo not drawn) [Ro 20-1724, reference compound], the IC50 [2] is given as 190 nM and the “effect on acid secretion” value (acid secretion) is given as “enhance acid secretion”.
For COc1ccc(C2CCN(Cc3ccc(NC(=NC#N)SC)cc3)C2=O)cc1OC1CCCC1 (stereo not drawn) [3-(cyclopentyl-oxy-4-methoxyphenyl)-1-(4-N′-[N2-cyano-S-methyl-isothioureido]benzyl)-2-pyrrolidone], the “High/Low Ratio (IC50 high affinity / IC50 low affinity)” value [1] was 0.30.
For COc1ccc(CCNC(=O)C(N)=O)cc1OC1CCCC1 [N-[2-(3-cyclopentyloxy-4-methoxyphenyl)ethyl]oxamide], the “High/Low Ratio (IC50 high affinity / IC50 low affinity)” value [1] was 0.013.
For CCCCn1c(=O)c2c(ncn2CC(C)=O)n(CCCC)c1=O [denbufylline, 7-acetonyl, 1,3-dibutyixanthine], the “side effects in clinical studies” value [3] is listed as “may include pyrosis, nausea and emesis”.
With CC(C)Cn1c(=O)n(C)c(=O)c2[nH]cnc21 [IBMX, reference compound] the “High/Low Ratio (IC50 high affinity / IC50 low affinity)” value [1] was 0.698.
